72 compounds from publication PMC7822874, “Chemoprotective antimalarials identified through quantitative high-throughput screening of Plasmodium blood and liver stage parasites” (Scientific Reports, 2021) can be followed below.

The test system of one test is Plasmodium falciparum Dd2 asexual blood stage parasites. The experiment in a line: microbe, parasite or virus in culture. Details: species or system Plasmodium falciparum Dd2 in human erythrocytes; single determination (one 11-point concentration-response curve). The conditions noted are these: Plasmodium falciparum, DD2, Erythrocyte, 72 h.
On to `Oc1cc2c(cc1CN1CCN(c3ccccc3)CC1)CCC2` [MLS000058156-01], for which the AC50 amounted to 3.35 µM.

Compound `Cc1ccc(C(=O)Nc2cccc(NC(=O)c3ccc(C)c([N+](=O)[O-])c3)n2)cc1[N+](=O)[O-]` [MLS001195117-01] displayed an AC50 of 15 µM.

The test is the same for the next values; noted with them: Plasmodium falciparum, DD2, Erythrocyte, 72 h; read-out: AC50.
Consider `COc1ccc(S(=O)(=O)N(C)C)cc1NC(C)C(=O)Nc1cccc(C#N)c1` (stereo not drawn) [MLS000761043-01], for which the concentration at half-maximal activity (AC50) was found to be 6.68 µM.

As to `C#C[C@H]1C[N@@]2CC[C@H]1C[C@@H]2CNCc1ccc(F)c(F)c1` [NCGC00399053-01], the AC50 is 13.7 µM.

Take `CCn1c(N2CCC(C)CC2)nc2c1c(=O)n(C)c(=O)n2C` [MLS000115844-01]: the AC50 is 5.96 µM.

`CC(C)CCN1CCC(N2CCN([S+](=O)([O-])c3ccc4c(c3)CCCC4)CC2)C1=O` (stereo not drawn) [NCGC00472995-01]: the AC50 is 9.44 µM.

`Cc1cccc(OCC(=O)NCC2(N3CCN(C)CC3)CCCCC2)c1C` [NCGC00118605-01]: the AC50 came out at 6.68 µM.

Consider `COc1ccc(-c2nc3sc(CCNC(=O)c4ccc(C(C)(C)C)cc4)c(C)n3n2)cc1` [NCGC00137079-01], for which the AC50 was determined as 2.11 µM.

As to `CC(C)CCNC(=O)c1cc(C(=O)c2cc(F)ccc2O)cn(CCC(C)C)c1=O` [MLS000761418-01], the AC50 was found to be 2.11 µM.

On to `CCOC(=O)c1ccc(Nc2nc(N)c3cc(OC)c(OC)cc3n2)cc1` [NCGC00107259-01], for which the AC50 amounted to 1.88 µM.

As for `CC(=O)C1=C(c2ccc(Br)cc2)N(C(C)=O)n2c(nnc2C2CCCCC2)S1` [NCGC00137196-01], the AC50 is 2.99 µM.

`O=C(NCCc1cccnc1)c1ccc(-c2nnc3ccc(NC(=O)C4CCC4)cn23)cc1` [NCGC00429899-01]: the AC50 came out at 6.68 µM.

On to `COc1cc(=O)n2c(c1C(=O)Nc1ccc(N(C)C)cc1)CCCC2` [NCGC00435410-01], for which the AC50 stood at 10.6 µM.

Regarding `CC(C)C(=O)N1Cc2ccccc2OC2(CCN(C(C)C)CC2)C1` [NCGC00456474-01], the AC50 stood at 10.6 µM.

`COc1cc(OC)cc(-c2cc3nc4c(c(N5CCN(c6ncccn6)CC5)n3n2)CCCC4)c1` [MLS000035210-01]: the AC50 is 4.22 µM.

Take `Oc1ccc(-c2ccccc2)cc1CN1CCCCCC1` [MLS001195126-01]: the AC50 came to 0.266 µM.

For `COc1cc(C(=O)OCC(=O)N2CCCCC2C)cc(NC(=O)c2cccs2)c1OC` (stereo not drawn) [MLS001003405-01], the AC50 came out at 0.473 µM.

As for `Cn1cnc2ccc(-c3cccc(O)c3)nc2c1=O` [NCGC00414672-01], the AC50 was 6.11 µM.

Regarding `O=C(Nc1nccs1)C1c2ccccc2C(=O)N(C2CCCC2)C12CCCC2` (stereo not drawn) [NCGC00423502-01], the AC50 stood at 4.22 µM.

Turning to `CCN(CC)c1ccc(NC(=O)COc2ccccc2C#N)cc1S(=O)(=O)Nc1ccccc1OC` [MLS000339599-01], the concentration at half-maximal activity (AC50) was determined as 7.5 µM.

Consider `CCC(=O)O[C@]1(C(=O)CCl)[C@@H](C)C[C@H]2[C@@H]3C[C@H](F)C4=CC(=O)C=C[C@]4(C)[C@@]3(F)[C@@H](O)C[C@@]21C` [NCGC00167451-01], for which the AC50 came out at 10.6 µM.

`CCCn1c(C)cnc1CC1CCN([S+](=O)([O-])c2ccc3c(c2)CCC3)C1` (stereo not drawn) [NCGC00464176-01]: the AC50 amounted to 9.44 µM.

Consider `O=C(c1n[nH]c2ccccc12)N1CCCC1c1nc(CCOCC2CCOCC2)no1` (stereo not drawn) [NCGC00460318-01], for which the AC50 is 9.44 µM.

On to `O=C(C1=C[C@H](c2csc3ccccc23)C[C@H](OCCCCO)O1)N1CCN(Cc2ccc3c(c2)OCO3)CC1` [MLS000834451-01], for which the AC50 stood at 13.3 µM.

Consider `CN1CCN(C(=O)C(C)(C)Oc2nn(Cc3cccc(Cl)c3)c3ccccc23)CC1` [NCGC00419545-01], for which the half-maximal activity concentration (AC50) came to 7.69 µM.

In the case of `COCCN(CCOC)c1nc(N)c2c(N)nc3c(c2c1C#N)CC(=O)N3Cc1ccc(Cl)cc1` [MLS000402239-01], the AC50 came to 5.96 µM.

Consider `CN1CCN(c2nc(Nc3ccc(O)cc3)nc3ccccc23)CC1` [MLS000716977-01], for which the AC50 came to 4.22 µM.

As for `Cc1cc(C)c(CNC(=O)c2cc(-c3ccnn3C)cc3c2OCCN3C(C)C)c(=O)[nH]1` [NCGC00417130-01], the AC50 is 15.3 µM.

As to `CC(C)c1nc2c(c(-c3ccc(O)cc3)n1)CN(Cc1cccc(F)c1)CC2` [NCGC00480376-01], the AC50 amounted to 9.44 µM.

`COC(=O)c1cnn(-c2ccc(C(=O)Nc3ccc(OC(F)(F)F)cc3)cc2)c1N` [NCGC00137710-01]: the AC50 came out at 4.73 µM.

In the case of `COc1ccc(-c2ccccc2NC(=O)C2CCCN(Cc3c(O)cccc3OC)C2)cc1` (stereo not drawn) [NCGC00425458-01], the concentration at half-maximal activity (AC50) was 2.11 µM.

As to `CNC(=O)CCn1ncc2cc(OCc3ccccc3-c3ccccc3OC)ccc21` [NCGC00418023-01], the AC50 stood at 15.3 µM.

As for `CC(C)Nc1nccc(C2(c3ccccc3Cl)CCNCC2)n1` [NCGC00440810-01], the AC50 worked out at 9.44 µM.

Regarding `CC1=C[C@@H](CN2CCC(C)CC2)[C@H](C(C)C)C[C@H]1Cc1nnc(-c2cccnc2)o1` [NCGC00421463-01], the AC50 came out at 15.3 µM.

For `O=C(NCc1ccco1)c1ccc2c(c1)N(Cc1c(F)cccc1Cl)C(=O)c1ccccc1S2` [NCGC00108150-01], the AC50 was found to be 13.3 µM.

For the compound `CSc1cccc(NC(=O)Cn2c(-c3ccc(F)cc3)nc(C)c(CCO)c2=O)c1` [NCGC00470986-01], the AC50 is 13.3 µM.

`Cc1nc(CN2C(=O)OC3(CCN(C(=O)Cc4ccc5c(c4)OCO5)CC3)C2(C)c2ccccc2)cs1` (stereo not drawn) [NCGC00415487-01]: the AC50 amounted to 2.11 µM.

Turning to `CC(=O)c1c(S)nc(-c2ccccc2)nc1N1CCN(C)CC1` [MLS000519428-01], the AC50 was determined as 5.96 µM.

Turning to `Cc1ccccc1NC(=O)c1c(NC(=O)c2ccco2)sc2c1CCC(C(C)(C)C)C2` (stereo not drawn) [NCGC00099842-01], the AC50 was found to be 13.3 µM.

As for `C=CC/N=C(\S)N1CCN(c2ccc([N+](=O)[O-])cc2)CC1` [MLS000581348-01], the AC50 was determined as 4.22 µM.

Turning to `COc1ccc2c(c1)OC(C)(C)[C@@H](c1ccccc1)[C@@H]2c1ccc(OCCN2CCCC2)cc1` [NCGC00181100-01], the AC50 was found to be 6.68 µM.

`Oc1ccc(CN2CCCCC2)nc1-c1ccccc1` [MLS000031925-01]: the AC50 is 0.531 µM.

For `Cc1ccc(-c2nc(NC(=O)c3cc(C(C)(C)C)nn3C)sc2C)cc1Cl` [MLS000860650-01], the AC50 is 10.6 µM.

Turning to `CN(C)C[C@@H]1CN(C)C[C@H]1N[S+](=O)([O-])c1ccc(Br)cc1` [NCGC00462726-01], the AC50 worked out at 13.3 µM.

In the case of `COc1ccc(C(O)(CCC(C)C)C(CN2CCOCC2)c2ccccc2)cc1` (stereo not drawn) [MLS001198958-01], the AC50 is 5.31 µM.

Regarding `CCOc1ccc(CN2C(=O)c3ccccc3Sc3ccc(C(=O)N4CCN(C)CC4)cc32)cc1` [NCGC00108216-01], the AC50 is 0.299 µM.

As for `CCC(C)NC(=O)c1ccccc1NC(=O)C1COc2ccccc2O1` (stereo not drawn) [MLS000708698-01], the AC50 was 10.6 µM.

Regarding `Cc1ccc2c(c1)c1c3n2CCCN(Cc2ccccc2)C3CCC1` (stereo not drawn) [MLS000525489-01], the AC50 came to 4.22 µM.

For the compound `O=C(Nc1ccc2c(N3CCOCC3)ncnc2c1)c1cccc(Cl)c1` [NCGC00425551-01], the AC50 was determined as 4.73 µM.

With `CC(C)C[C@@]12C(=O)N(c3cccc(Br)c3)C(=O)N1[C@H](c1ccc(F)cc1)[C@@H]1C(=O)N(C3CCCCC3)C(=O)[C@@H]12` [MLS001074979-01], the AC50 came out at 7.5 µM.

Consider `CC(C)Oc1ccc(C(=O)Nc2ccc3oc(-c4ccncc4)nc3c2)cc1` [NCGC00098730-01], for which the AC50 was found to be 8.41 µM.

Consider `CCC(=O)C1=C(c2ccccc2)N(C(=O)CC)n2c(nnc2-c2ccccc2)S1` [NCGC00137198-01], for which the AC50 is 5.96 µM.

For the compound `O=C(CN1CCC(n2nnc3cc(F)ccc32)CC1)Nc1ccccc1N1CCOCC1` [MLS000030185-01], the AC50 stood at 5.31 µM.

Consider `Cc1ccc([S+](=O)([O-])c2nc([S+](=O)([O-])c3ccccc3)sc2NCCCOC(C)C)cc1` [NCGC00116818-01], for which the AC50 is 0.596 µM.

In the case of `Cn1c(SCC(=O)N2c3ccccc3CCc3ccccc32)nnc1-c1cc2ccccc2cc1O` [MLS000553503-01], the AC50 was 8.41 µM.

Consider `CC(C)C[C@@H](NC(=O)[C@@H](O)[C@H](N)Cc1ccccc1)C(=O)O` [NCGC00093685-01], for which the AC50 amounted to 2.99 µM.

Turning to `O=C(Nc1ccc2c(N3CCCC3)ncnc2c1)c1ccc(Br)cc1` [NCGC00425477-01], the AC50 was 4.73 µM.

`Cc1ccc(-n2cc(CNCCc3nc(C)c[nH]3)c(-c3ccc(F)cc3)n2)cc1` [MLS000735387-01]: the AC50 stood at 15 µM.

In the case of `CCCCn1c(=N)c(C(=O)NC2CCCCC2)cc2c(=O)n3cccc(C)c3nc21` [NCGC00101037-01], the AC50 amounted to 1.5 µM.

With `CCOc1ccccc1C(=O)N1CC(=O)Nc2ccc(Cl)cc2C1c1ccccc1` (stereo not drawn) [NCGC00103922-01], the AC50 was determined as 9.44 µM.

Consider `CCN(CC)CCCNC(=O)c1nn(-c2ccc(OC)c(Cl)c2)c(=O)c2c1c1ccccc1n2C` [NCGC00108872-01], for which the AC50 is 10.6 µM.

With `CC(=O)C1=C(c2ccc(Cl)cc2)N(C(C)=O)n2c(nnc2C2CCCCC2)S1` [NCGC00137192-01], the AC50 stood at 4.73 µM.

Turning to `COc1ccc(CCC(=O)N2Cc3ccccc3OC3(CCN(C)CC3)C2)cc1` [NCGC00456460-01], the AC50 came to 7.5 µM.

As to `Cc1cc(C)n(CC(O)COc2ccccc2)n1` (stereo not drawn) [MLS000525359-01], the AC50 came out at 13.3 µM.

Turning to `COC(=O)c1ccc2nc(C)cc(Nc3ccc(O)cc3)c2c1` [NCGC00099848-01], the AC50 turned out to be 9.44 µM.

In the case of `Cc1cc(N2CCC(C)CC2)nc(-n2nc(C)cc2C)n1` [MLS000109839-01], the AC50 is 2.99 µM.

For `CCOc1ccc(NC(=O)Nc2cc(OCC(F)(F)F)cc(OCC(F)(F)F)c2)cc1` [MLS000391697-01], the AC50 was determined as 13.3 µM.

For `O=C(CN1CCN(C(=O)c2ccco2)CC1)Nc1cc(C(F)(F)F)ccc1Cl` [MLS000047443-01], the AC50 worked out at 7.5 µM.

In the case of `O=S(=O)(c1ccc(F)cc1)N1CCN(C(S)=NC2CC2)CC1` [MLS002161026-01], the AC50 came to 3.35 µM.

Turning to `CCCn1c(=N)c(C(=O)NC2CCCC2)cc2c(=O)n3cccc(C)c3nc21` [NCGC00100358-01], the AC50 worked out at 5.96 µM.

With `CCOC(=O)c1cc2c(=O)n3ccccc3nc2n(CC(C)C)/c1=N\C(=O)COc1ccc(Cl)cc1` [NCGC00104075-01], the AC50 was 10.6 µM.

Regarding `COc1ccccc1N1CCN(CCCNC(=O)c2cnn(-c3cccc(Cl)c3)c2C2CCN(C(=O)OC(C)(C)C)CC2)CC1` [NCGC00126882-01], the AC50 was found to be 2.11 µM.
